Data: patent US12441703B2, “Carboxamides as modulators of sodium channels” (VERTEX PHARMACEUTICALS INCORPORATED, priority 2019, dated 2025)

target: human NaV 1.8 (Homo sapiens, UniProt Q9Y5Y9); assay: E-VIPR assay for detecting and measuring NaV inhibition properties; assay type: cell-based; details: E-VIPR assay conducted in the presence of human serum; HEK cells expressing truncated human NaV 1.8; read-out: IC50
Summary of the method: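 HEK cells with truncated human NaV1.8 plus KIR2.1 BacMam, hexyl dye loaded 20 min, compound 30 min at room temperature, 11-point 3-fold series […], 0.625% DMSO, with or without human serum. E-VIPR biphasic stimulation at 10 Hz for 10 s; membrane-potential response read as normalized coumarin/oxonol ratio.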

human NaV 1.8, sequence (Q9Y5Y9 whole entry, looked up, the tested form may be a part): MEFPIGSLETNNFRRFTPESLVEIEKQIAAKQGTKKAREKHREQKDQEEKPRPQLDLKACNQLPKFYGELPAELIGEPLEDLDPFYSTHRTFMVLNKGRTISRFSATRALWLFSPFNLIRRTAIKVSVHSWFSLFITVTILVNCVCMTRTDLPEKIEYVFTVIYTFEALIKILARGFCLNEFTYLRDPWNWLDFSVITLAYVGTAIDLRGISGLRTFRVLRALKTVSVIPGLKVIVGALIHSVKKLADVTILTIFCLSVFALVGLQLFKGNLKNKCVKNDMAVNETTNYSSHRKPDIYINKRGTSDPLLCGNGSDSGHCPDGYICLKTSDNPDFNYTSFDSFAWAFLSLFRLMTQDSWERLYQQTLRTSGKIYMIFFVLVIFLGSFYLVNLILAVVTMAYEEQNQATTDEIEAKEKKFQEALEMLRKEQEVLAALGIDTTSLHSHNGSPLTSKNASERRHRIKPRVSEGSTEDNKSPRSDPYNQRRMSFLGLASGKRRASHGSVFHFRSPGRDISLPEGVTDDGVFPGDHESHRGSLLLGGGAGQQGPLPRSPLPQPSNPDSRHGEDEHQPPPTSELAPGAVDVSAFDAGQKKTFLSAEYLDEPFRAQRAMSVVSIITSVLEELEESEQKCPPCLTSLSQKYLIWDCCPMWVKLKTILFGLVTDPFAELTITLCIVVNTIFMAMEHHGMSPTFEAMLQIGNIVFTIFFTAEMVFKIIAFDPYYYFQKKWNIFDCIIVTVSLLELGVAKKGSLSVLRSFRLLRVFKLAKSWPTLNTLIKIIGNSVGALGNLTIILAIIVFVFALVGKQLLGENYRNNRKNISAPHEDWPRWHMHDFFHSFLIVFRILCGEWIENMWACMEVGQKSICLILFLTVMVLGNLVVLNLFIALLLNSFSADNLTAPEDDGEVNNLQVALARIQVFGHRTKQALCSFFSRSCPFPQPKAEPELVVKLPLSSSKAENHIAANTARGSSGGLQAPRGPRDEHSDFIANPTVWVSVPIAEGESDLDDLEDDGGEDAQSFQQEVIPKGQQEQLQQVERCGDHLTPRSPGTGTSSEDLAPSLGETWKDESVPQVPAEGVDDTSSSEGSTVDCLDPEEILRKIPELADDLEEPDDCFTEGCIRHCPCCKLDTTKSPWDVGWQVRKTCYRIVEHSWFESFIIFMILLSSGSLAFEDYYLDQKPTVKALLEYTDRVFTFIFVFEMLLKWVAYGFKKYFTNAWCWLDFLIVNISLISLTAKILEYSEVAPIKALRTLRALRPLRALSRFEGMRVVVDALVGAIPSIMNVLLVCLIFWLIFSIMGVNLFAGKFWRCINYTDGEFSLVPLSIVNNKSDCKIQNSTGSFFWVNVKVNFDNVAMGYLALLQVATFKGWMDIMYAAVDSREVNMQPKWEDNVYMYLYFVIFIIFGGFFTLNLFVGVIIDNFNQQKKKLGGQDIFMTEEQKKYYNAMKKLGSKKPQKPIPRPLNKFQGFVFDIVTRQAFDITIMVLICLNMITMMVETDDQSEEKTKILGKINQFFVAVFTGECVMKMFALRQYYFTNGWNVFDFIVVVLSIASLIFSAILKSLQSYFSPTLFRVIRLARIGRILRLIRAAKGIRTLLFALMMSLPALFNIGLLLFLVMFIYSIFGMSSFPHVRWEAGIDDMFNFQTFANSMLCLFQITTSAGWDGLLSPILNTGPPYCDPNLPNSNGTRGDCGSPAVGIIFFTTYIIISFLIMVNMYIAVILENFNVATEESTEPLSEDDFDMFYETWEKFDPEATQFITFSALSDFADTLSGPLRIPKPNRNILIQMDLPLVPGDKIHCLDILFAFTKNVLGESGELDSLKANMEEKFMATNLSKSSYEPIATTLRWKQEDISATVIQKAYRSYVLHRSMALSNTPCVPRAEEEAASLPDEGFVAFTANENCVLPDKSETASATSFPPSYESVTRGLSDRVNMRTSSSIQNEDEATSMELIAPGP

Compound | IC50 [nM]
Cc1cc(Cl)ccc1Oc1ccc(C(F)(F)F)c(C)c1C(=O)Nc1ccnc(C(N)=O)c1 [Compound 136, 4-[[6-(4-chloro-2-methyl-phenoxy)-2-methyl-3-(trifluoromethyl)benzoyl]amino]pyridine-2-carboxamide] | 140
Cc1c(C(F)(F)F)ccc(Oc2ccc(F)c(F)c2F)c1C(=O)Nc1ccnc(C(N)=O)c1 [Compound 140, 4-[[2-methyl-3-(trifluoromethyl)-6-(2,3,4-trifluorophenoxy)benzoyl]amino]pyridine-2-carboxamide] | 68
Cc1c(F)ccc(Oc2ccc(C(F)(F)F)c(C)c2C(=O)Nc2ccnc(C(N)=O)c2)c1C [Compound 141, 4-[[6-(4-fluoro-2,3-dimethyl-phenoxy)-2-methyl-3-(trifluoromethyl)benzoyl]amino]pyridine-2-carboxamide] | 220
Cc1cc(Cl)cc(Cl)c1Oc1ccc(C(F)(F)F)c(C)c1C(=O)Nc1ccnc(C(N)=O)c1 [Compound 142, 4-[[6-(2,4-dichloro-6-methyl-phenoxy)-2-methyl-3-(trifluoromethyl)benzoyl]amino]pyridine-2-carboxamide] | 1700
Cc1c(C(F)(F)F)ccc(Oc2c(F)cc(F)cc2F)c1C(=O)Nc1ccnc(C(N)=O)c1 [Compound 143, 4-[[2-methyl-3-(trifluoromethyl)-6-(2,4,6-trifluorophenoxy)benzoyl]amino]pyridine-2-carboxamide] | > 3000
Cc1cc(Cl)cc(C)c1Oc1ccc(C(F)(F)F)c(C)c1C(=O)Nc1ccnc(C(N)=O)c1 [Compound 144, 4-[[6-(4-chloro-2,6-dimethyl-phenoxy)-2-methyl-3-(trifluoromethyl)benzoyl]amino]pyridine-2-carboxamide] | 765
COc1cc(C)cc(OC)c1Oc1ccc(C(F)(F)F)c(C)c1C(=O)Nc1ccnc(C(N)=O)c1 [Compound 145, 4-[[6-(2,6-dimethoxy-4-methyl-phenoxy)-2-methyl-3-(trifluoromethyl)benzoyl]amino]pyridine-2-carboxamide] | > 3000
COc1cc(OC(F)(F)F)ccc1Oc1cc(-c2ccoc2)ccc1C(=O)Nc1ccnc(C(N)=O)c1 [Compound 154, 4-[[4-(3-furyl)-2-[2-methoxy-4-(trifluoromethoxy)phenoxy]benzoyl]amino]pyridine-2-carboxamide] | 988
COc1cc(OC(F)(F)F)ccc1Oc1cc(-c2ccc(Cl)cc2)ccc1C(=O)Nc1ccnc(C(N)=O)c1 [Compound 155, 4-[[4-(4-chlorophenyl)-2-[2-methoxy-4-(trifluoromethoxy)phenoxy]benzoyl]amino]pyridine-2-carboxamide] | 505
COc1cc(OC(F)(F)F)ccc1Oc1cc(-c2ccc(F)cc2)ccc1C(=O)Nc1ccnc(C(N)=O)c1 [Compound 156, 4-[[4-(4-fluorophenyl)-2-[2-methoxy-4-(trifluoromethoxy)phenoxy]benzoyl]amino]pyridine-2-carboxamide] | 730
COc1cc(OC(F)(F)F)ccc1Oc1cc(-c2ccc(C(F)(F)F)cc2)ccc1C(=O)Nc1ccnc(C(N)=O)c1 [Compound 157, 4-[[2-[2-methoxy-4-(trifluoromethoxy)phenoxy]-4-[4-(trifluoromethyl)phenyl]benzoyl]amino]pyridine-2-carboxamide] | 408
COc1cc(F)ccc1Oc1cc(C(F)(F)F)ccc1C(=O)Nc1ccnc(C(N)=O)c1 [Compound 159, 4-[[2-(4-fluoro-2-methoxy-phenoxy)-4-(trifluoromethyl)benzoyl]amino]pyridine-2-carboxamide] | > 3000
CC(C)Oc1ccc(Oc2cc(C(F)(F)F)ccc2C(=O)Nc2ccnc(C(N)=O)c2)cc1F [Compound 160, 4-[[2-(3-fluoro-4-isopropoxy-phenoxy)-4-(trifluoromethyl)benzoyl]amino]pyridine-2-carboxamide] | > 3000
NC(=O)c1cc(NC(=O)c2ccc(C(F)(F)F)cc2Oc2ccc(F)cc2Cl)ccn1 [Compound 161, 4-[[2-(2-chloro-4-fluoro-phenoxy)-4-(trifluoromethyl)benzoyl]amino]pyridine-2-carboxamide] | > 3000
NC(=O)c1cc(NC(=O)c2ccc(C(F)(F)F)cc2Oc2ccc(F)c(F)c2)ccn1 [Compound 163, 4-[[2-(3,4-difluorophenoxy)-4-(trifluoromethyl)benzoyl]amino]pyridine-2-carboxamide] | > 3000
CC(C)Oc1ccc(Oc2cc(C(F)(F)F)ccc2C(=O)Nc2ccnc(C(N)=O)c2)cc1 [Compound 164, 4-[[2-(4-isopropoxyphenoxy)-4-(trifluoromethyl)benzoyl]amino]pyridine-2-carboxamide] | > 3000
NC(=O)c1cc(NC(=O)c2ccc(C(F)(F)F)cc2Oc2ccc(F)c3c2OCC3)ccn1 [Compound 165, 4-[[2-[(4-fluoro-2,3-dihydrobenzofuran-7-yl)oxy]-4-(trifluoromethyl)benzoyl]amino]pyridine-2-carboxamide] | > 3000
Cc1cc(Oc2cc(C(F)(F)F)ccc2C(=O)Nc2ccnc(C(N)=O)c2)ccc1F [Compound 166, 4-[[2-(4-fluoro-3-methyl-phenoxy)-4-(trifluoromethyl)benzoyl]amino]pyridine-2-carboxamide] | > 3000
COc1cc(Oc2cc(C(F)(F)F)ccc2C(=O)Nc2ccnc(C(N)=O)c2)ccc1F [Compound 167, 4-[[2-(4-fluoro-3-methoxy-phenoxy)-4-(trifluoromethyl)benzoyl]amino]pyridine-2-carboxamide] | > 3000
COc1cc(OC(F)(F)F)ccc1Oc1cc(-c2ccc(F)cc2)cc(F)c1C(=O)Nc1ccc(C(N)=O)nc1 [Compound 170, 5-[[2-fluoro-4-(4-fluorophenyl)-6-[2-methoxy-4-(trifluoromethoxy)phenoxy]benzoyl]amino]pyridine-2-carboxamide] | 230
[2H]C([2H])([2H])Oc1cc(OC(F)(F)F)ccc1Oc1cc(C(F)(F)F)cnc1C(=O)Nc1ccnc(C(N)=O)c1 [Compound 173, N-(2-carbamoyl-4-pyridyl)-3-[2-(trideuteriomethoxy)-4-(trifluoromethoxy)phenoxy]-5-(trifluoromethyl)pyridine-2-carboxamide] | 1300

Compounds with a lower IC50, results first:

IC50 [nM] | Compound
54 | COc1cc(F)ccc1Oc1ccc(C(F)(F)F)c(C)c1C(=O)Nc1ccnc(C(N)=O)c1 [Compound 137, 4-[[6-(4-fluoro-2-methoxy-phenoxy)-2-methyl-3-(trifluoromethyl)benzoyl]amino]pyridine-2-carboxamide]
20 | Cc1c(C(F)(F)F)ccc(Oc2ccc(OC(F)(F)F)c(Cl)c2)c1C(=O)Nc1ccnc(C(N)=O)c1 [Compound 138, 4-[[6-[3-chloro-4-(trifluoromethoxy)phenoxy]-2-methyl-3-(trifluoromethyl)benzoyl]amino]pyridine-2-carboxamide]
33 | Cc1c(C(F)(F)F)ccc(Oc2ccc(OC(F)(F)F)c(F)c2)c1C(=O)Nc1ccnc(C(N)=O)c1 [Compound 139, 4-[[6-[3-fluoro-4-(trifluoromethoxy)phenoxy]-2-methyl-3-(trifluoromethyl)benzoyl]amino]pyridine-2-carboxamide]
17 | Cc1c(C(F)(F)F)ccc(Oc2ccc(OC(F)(F)F)cc2Cl)c1C(=O)Nc1ccnc(C(N)=O)c1 [Compound 146, 4-[[6-[2-chloro-4-(trifluoromethoxy)phenoxy]-2-methyl-3-(trifluoromethyl)benzoyl]amino]pyridine-2-carboxamide]
3 | COc1c(Oc2ccc(C(F)(F)F)c(C)c2C(=O)Nc2ccnc(C(N)=O)c2)ccc(OC(F)(F)F)c1F [Compound 147, 4-[[6-[3-fluoro-2-methoxy-4-(trifluoromethoxy)phenoxy]-2-methyl-3-(trifluoromethyl)benzoyl]amino]pyridine-2-carboxamide]
9 | Cc1c(C(F)(F)F)ccc(Oc2ccc(OC(F)(F)F)cc2C2CC2)c1C(=O)Nc1ccnc(C(N)=O)c1 [Compound 148, 4-[[6-[2-cyclopropyl-4-(trifluoromethoxy)phenoxy]-2-methyl-3-(trifluoromethyl)benzoyl]amino]pyridine-2-carboxamide]
19 | Cc1c(Oc2ccc(C(F)(F)F)c(C)c2C(=O)Nc2ccnc(C(N)=O)c2)ccc(F)c1F [Compound 149, 4-[[6-(3,4-difluoro-2-methyl-phenoxy)-2-methyl-3-(trifluoromethyl)benzoyl]amino]pyridine-2-carboxamide]
2 | COc1cc(OC(F)(F)F)ccc1Oc1ccc(C(F)(F)F)c(F)c1C(=O)Nc1cc[n+]([O-])c(C(N)=O)c1 [Compound 150, 4-[[2-fluoro-6-[2-methoxy-4-(trifluoromethoxy)phenoxy]-3-(trifluoromethyl)benzoyl]amino]-1-oxido-pyridin-1-ium-2-carboxamide]
4 | COc1cc(OC(F)(F)F)ccc1Oc1ccc(C(F)(F)F)c(C)c1C(=O)Nc1ccnc(C(N)=O)c1 [Compound 151, 4-[[6-[2-methoxy-4-(trifluoromethoxy)phenoxy]-2-methyl-3-(trifluoromethyl)benzoyl]amino]pyridine-2-carboxamide]
12 | COc1cc(OC(F)(F)F)ccc1Oc1ccc(C(F)(F)F)c(C)c1C(=O)Nc1ccc(C(N)=O)nc1 [Compound 152]
7 | COc1cc(OC(F)(F)F)ccc1Oc1ccc(C(F)(F)F)c(C)c1C(=O)Nc1cc(C(N)=O)ncc1C [Compound 153]
9 | COc1cc(OC(F)(F)F)ccc1Oc1cc(-c2ccc(Cl)cc2)cc(F)c1C(=O)Nc1ccnc(C(N)=O)c1 [Compound 171, 4-[[4-(4-chlorophenyl)-2-fluoro-6-[2-methoxy-4-(trifluoromethoxy)phenoxy]benzoyl]amino]pyridine-2-carboxamide]
50 | COc1cc(OC(F)(F)F)ccc1Oc1cc(-c2ccc(C(C)(C)C)cc2)cc(F)c1C(=O)Nc1ccnc(C(N)=O)c1 [Compound 172]
